# In patent publication US10238661B2, “Fused, spirocyclic heteroaromatic compounds for the treatment of bacterial infections” (priority 2014, dated 2019):
# Where “and” joins values, the source holds several entries; their conditions need not be identical. Identical values can stand only once. Like-named read-outs stand apart in the source and are kept apart here.
# Key:
# Mycoplasma genitalium = experiment: microbe, parasite or virus in culture; format: cell-based; conditions: for MIC: Mycoplasmoides genitalium
# Mycoplasma pneumoniae = experiment: Broth microdilution MIC assay (CLSI M43-A), M. pneumoniae; format: cell-based; conditions: for MIC50 / MIC90 / MIC Range: M. pneumoniae isolates, n = 12
# Mycoplasma hominis = experiment: microbe, parasite or virus in culture; format: cell-based
# Ureaplasma species [1] = experiment: microbe, parasite or virus in culture; format: cell-based, Ureaplasma urealyticum, Ureaplasma parvum; conditions: for MIC50 / MIC90 / MIC: Ureaplasma; for MIC: ATCC33175
# Ureaplasma species [2] = conditions: Ureaplasma urealyticum ATCC 33175; CLSI M43-A acceptable QC range; cited from earlier work
# Francisella tularensis = experiment: microbe, parasite or virus in culture; format: cell-based
# Bacillus anthracis = experiment: microbe, parasite or virus in culture; format: cell-based
# [3] = test system: Burkholderia pseudomallei; experiment: microbe, parasite or virus in culture; format: cell-based
# Burkholderia mallei = experiment: microbe, parasite or virus in culture; format: cell-based; conditions: Burkholderia mallei
# Yersinia pestis = experiment: microbe, parasite or virus in culture; format: cell-based
# Brucella melitensis = experiment: microbe, parasite or virus in culture; format: cell-based
# Brucella suis = experiment: microbe, parasite or virus in culture; format: cell-based
# [4] = M. pneumoniae M-129 QC Strain ATCC 29342-B7, read-out: MIC
# [5] = M. pneumoniae isolate 51494, read-out: MIC
# [6] = M. pneumoniae isolate 53706, read-out: MIC
# [7] = M. pneumoniae isolate 53938, read-out: MIC
# [8] = M. pneumoniae isolate 54484, macrolide-resistant, read-out: MIC
# [9] = M. pneumoniae isolate 54506, macrolide-resistant, read-out: MIC
# [10] = M. pneumoniae isolate 55246, read-out: MIC
# [11] = M. pneumoniae isolate 55612, read-out: MIC
# [12] = M. pneumoniae isolate 57807, read-out: MIC
# [13] = M. pneumoniae isolate 58188, read-out: MIC
# [14] = M. pneumoniae isolate 58772, read-out: MIC
# [15] = M. pneumoniae isolate 59597, read-out: MIC
# [16] = M. pneumoniae isolate 59598, read-out: MIC
smiles,measurement,setting,value
CC[C@H]1OC(=O)[C@H](C)[C@@H](O[C@H]2C[C@@](C)(OC)[C@@H](O)[C@H](C)O2)[C@H](C)[C@@H](O[C@@H]2O[C@H](C)C[C@H](N(C)C)[C@H]2O)[C@](C)(O)C[C@@H](C)CN(C)[C@H](C)[C@@H](O)[C@]1(C)O [Azithromycin],MIC Range,Mycoplasma genitalium,<0.001 µg/mL
same,MIC,Mycoplasma genitalium,< 0.001 µg/mL
same,MIC,Mycoplasma genitalium; ATCC33530,< 0.001 µg/mL
same,MIC,Mycoplasma genitalium; ATCC49895,< 0.001 µg/mL
same,MIC,Mycoplasma genitalium; ATCC49899,< 0.001 µg/mL
same,MIC,Mycoplasma pneumoniae; [4],< 0.001 µg/mL
same,MIC,Mycoplasma pneumoniae; [5],< 0.001 µg/mL
same,MIC,Mycoplasma pneumoniae; [6],< 0.001 µg/mL
same,MIC,Mycoplasma pneumoniae; [7],< 0.001 µg/mL
same,MIC,Mycoplasma pneumoniae; [8],32 µg/mL
same,MIC,Mycoplasma pneumoniae; [9],16 µg/mL
same,MIC,Mycoplasma pneumoniae; [10],< 0.001 µg/mL
same,MIC,Mycoplasma pneumoniae; [11],< 0.001 µg/mL
same,MIC,Mycoplasma pneumoniae; [12],< 0.001 µg/mL
same,MIC,Mycoplasma pneumoniae; [13],< 0.001 µg/mL
same,MIC,Mycoplasma pneumoniae; [14],< 0.001 µg/mL
same,MIC,Mycoplasma pneumoniae; [15],< 0.001 µg/mL
same,MIC,Mycoplasma pneumoniae; [16],< 0.001 µg/mL
same,MIC50,Mycoplasma pneumoniae,< 0.001 µg/mL
same,MIC90,Mycoplasma pneumoniae,16 µg/mL
same,MIC Range,Mycoplasma pneumoniae,<0.001-32 ^ μg/mL
same,MIC,"Mycoplasma pneumoniae; most M. pneumoniae isolates, read-out: MICs of most isolates",< 0.001 µg/mL
same,MICs of two macrolide-resistant strains,Mycoplasma pneumoniae; two M. pneumoniae strains with mutations in 23S ribosomal RNA,32 µg/mL
same,MIC,"Mycoplasma pneumoniae; two M. pneumoniae strains with mutations in 23S ribosomal RNA, read-out: MICs of two macrolide-resistant strains",16 µg/mL
same,MIC Range,Mycoplasma hominis,1 to 8 µg/mL
same,MIC50,Mycoplasma hominis; Metamycoplasma hominis,4 µg/mL
same,MIC90,Mycoplasma hominis; Metamycoplasma hominis,4 µg/mL
same,MIC Range,Ureaplasma species [1],1 to 32 µg/mL
same,MIC50,Ureaplasma species [1],2 µg/mL
same,MIC90,Ureaplasma species [1],4 µg/mL
same,MIC,Ureaplasma species [1],2 µg/mL
same,MIC Limits for Quality Control Strain,Ureaplasma species [2],0.5 to 8 µg/mL
O=C(N[C@H](CO)[C@H](O)c1ccc([N+](=O)[O-])cc1)C(Cl)Cl [Chloramphenicol],MIC,Francisella tularensis,1 µg/mL
same,MIC,Francisella tularensis; Francisella tularensis,2 µg/mL
same,MIC,Bacillus anthracis,4 µg/mL
same,MIC,Bacillus anthracis; Bacillus anthracis,8 µg/mL
"C[C@@H]1CN2c3c(cc4c(N5C(=O)OC[C@@H]5C)noc4c3F)CC3(C(=O)NC(=O)NC3=O)[C@H]2[C@H](C)O1 [Compound 1, (2R,4S,4aS)-11-fluoro-2,4-dimethyl-8-[(4S)-4-methyl-2-oxo-1,3-oxazolidin-3-yl]-1,2,4,4a-tetrahydro-2′H,6H-spiro[1,4-oxazino[4,3-a][1,2]oxazolo[4,5-g]quinoline-5,5′-pyrimidine]-2′,4′,6′(1′H,3′H)-trione]",MIC,Mycoplasma genitalium,0.5 µg/mL
same,MIC,Mycoplasma genitalium; ATCC33530,0.5 µg/mL
same,MIC,Mycoplasma genitalium; ATCC49895,1 µg/mL
same,MIC,Mycoplasma genitalium; ATCC49899,0.5 µg/mL
same,MIC90 relative to doxycycline (fold higher),Mycoplasma pneumoniae; M. pneumoniae,4 fold
same,MIC,Mycoplasma pneumoniae; [4],0.5 µg/mL
same,MIC,Mycoplasma pneumoniae; [5],0.5 µg/mL
same,MIC,Mycoplasma pneumoniae; [6],0.5 µg/mL
same,MIC,Mycoplasma pneumoniae; [7],0.5 µg/mL
same,MIC,Mycoplasma pneumoniae; [8],0.5 µg/mL
same,MIC,Mycoplasma pneumoniae; [9],0.5 µg/mL
same,MIC,Mycoplasma pneumoniae; [10],1 µg/mL
same,MIC,Mycoplasma pneumoniae; [11],1 µg/mL
same,MIC,Mycoplasma pneumoniae; [12],0.5 µg/mL
same,MIC,Mycoplasma pneumoniae; [13],0.5 µg/mL
same,MIC,Mycoplasma pneumoniae; [14],0.5 µg/mL
same,MIC,Mycoplasma pneumoniae; [15],0.5 µg/mL
same,MIC,Mycoplasma pneumoniae; [16],0.5 µg/mL
same,MIC50,Mycoplasma pneumoniae,0.5 µg/mL
same,MIC90,Mycoplasma pneumoniae,1 µg/mL
same,in vitro potency against macrolide-resistant versus macrolide-susceptible isolates,Mycoplasma pneumoniae; two macrolide-resistant M. pneumoniae isolates,maintained in vitro potency
same,MIC90 relative to levofloxacin (fold greater),Mycoplasma hominis,16 fold
same,MIC Range,Mycoplasma hominis,1 to 8 µg/mL
same,effect of presence of tetM on MICs,Mycoplasma hominis,not affected by the presence of tetM
same,MIC50,Mycoplasma hominis; Metamycoplasma hominis,2 µg/mL
same,MIC90,Mycoplasma hominis; Metamycoplasma hominis,4 µg/mL
same,MIC,"Mycoplasma hominis; Metamycoplasma hominis, read-out: maximum MIC value",8 µg/mL
same,MIC90 potency relative to azithromycin (fold more potent / lower MIC90),Ureaplasma species [1],4 fold
same,MIC range for isolates containing tetM,Ureaplasma species [1],0.5 to 2 µg/mL
same,"difference in MICs, levofloxacin-resistant versus levofloxacin-susceptible isolates",Ureaplasma species [1],no difference
same,MIC50,Ureaplasma species [1],0.5 µg/mL
same,MIC90,Ureaplasma species [1],1 µg/mL
same,MIC,Ureaplasma species [1],0.5 µg/mL
same,MIC,[3],64 µg/mL
same,MIC90,[3],>64 µg/mL
same,MIC,[3]; Burkholderia pseudomallei,32 µg/mL
same,MIC50,[3]; Burkholderia pseudomallei,32 µg/mL
same,MIC90,[3]; Burkholderia pseudomallei,64 µg/mL
same,MIC90,Burkholderia mallei,32 µg/mL
same,MIC50,Yersinia pestis,4 µg/mL
same,MIC50,Yersinia pestis; Yersinia pestis,2 µg/mL
same,MIC,Francisella tularensis,8 µg/mL
same,MIC Range,Francisella tularensis,8 to 16 µg/mL
same,MIC,Francisella tularensis; Francisella tularensis,16 µg/mL
same,MIC50,Francisella tularensis; Francisella tularensis,16 µg/mL
same,MIC90,Francisella tularensis; Francisella tularensis,16 µg/mL
same,MIC90,Bacillus anthracis,1 µg/mL
same,MIC Range,Bacillus anthracis,0.12 to 1 µg/mL and 0.12 to 4 µg/mL
same,MIC50,Bacillus anthracis; Bacillus anthracis,0.25 µg/mL
same,MIC90,Bacillus anthracis; Bacillus anthracis,0.5 µg/mL
same,MIC,Brucella melitensis,16 µg/mL
same,MIC,Brucella melitensis; Brucella melitensis,8 µg/mL
same,MIC,Brucella suis,1 µg/mL
same,MIC Range,Brucella suis,1 to 2 µg/mL
same,MIC,Brucella suis; Brucella suis,2 µg/mL
same,MIC50,Brucella suis; Brucella suis,1 µg/mL
same,MIC90,Brucella suis; Brucella suis,2 µg/mL
C[C@H]1c2cccc(O)c2C(=O)C2=C(O)[C@]3(O)C(=O)C(C(N)=O)=C(O)[C@@H](N(C)C)[C@@H]3[C@@H](O)[C@@H]21 [Doxycycline],MIC Range,Mycoplasma genitalium,0.25 to 1 µg/mL
same,MIC,Mycoplasma genitalium,1 µg/mL
same,MIC,Mycoplasma genitalium; ATCC33530,0.25 µg/mL
same,MIC,Mycoplasma genitalium; ATCC49895,0.25 µg/mL
same,MIC,Mycoplasma genitalium; ATCC49899,0.5 µg/mL
same,MIC,Mycoplasma pneumoniae; [4],0.5 µg/mL
same,MIC,Mycoplasma pneumoniae; [5],0.25 µg/mL
same,MIC,Mycoplasma pneumoniae; [6],0.25 µg/mL
same,MIC,Mycoplasma pneumoniae; [7],0.25 µg/mL
same,MIC,Mycoplasma pneumoniae; [8],0.25 µg/mL
same,MIC,Mycoplasma pneumoniae; [9],0.25 µg/mL
same,MIC,Mycoplasma pneumoniae; [10],0.25 µg/mL
same,MIC,Mycoplasma pneumoniae; [11],0.25 µg/mL
same,MIC,Mycoplasma pneumoniae; [12],0.25 µg/mL
same,MIC,Mycoplasma pneumoniae; [13],0.125 µg/mL
same,MIC,Mycoplasma pneumoniae; [14],0.5 µg/mL
same,MIC,Mycoplasma pneumoniae; [15],0.25 µg/mL
same,MIC,Mycoplasma pneumoniae; [16],0.25 µg/mL
same,MIC50,Mycoplasma pneumoniae,0.25 µg/mL
same,MIC90,Mycoplasma pneumoniae,0.25 µg/mL
same,MIC Range,Mycoplasma pneumoniae,0.125 to 0.5 µg/mL
same,MIC Range,Mycoplasma hominis,0.016 to 4 µg/mL
same,MICs for isolates with tetM,Mycoplasma hominis,4 µg/mL
same,MICs for isolates without tetM,Mycoplasma hominis,0.016 to 0.063 µg/mL
same,MIC50,Mycoplasma hominis; Metamycoplasma hominis,0.032 µg/mL
same,MIC90,Mycoplasma hominis; Metamycoplasma hominis,4 µg/mL
same,MIC90 activity relative to Compound 1 (fold more active),Ureaplasma species [1],8 fold
same,MIC Range,Ureaplasma species [1],0.016 to 8 µg/mL
same,MIC range for isolates containing tetM,Ureaplasma species [1],4 to 8 µg/mL
same,MIC50,Ureaplasma species [1],0.125 µg/mL
same,MIC90,Ureaplasma species [1],8 µg/mL
same,MIC,Ureaplasma species [1],8 µg/mL
same,MIC90,Ureaplasma species [1]; read-out: MIC90 for doxycycline-susceptible organisms,0.125 µg/mL
same,MIC,Yersinia pestis,1 µg/mL
same,MIC,Yersinia pestis; Yersinia pestis,0.5 µg/mL
same,MIC,Bacillus anthracis; Bacillus anthracis,≤ 0.031 µg/mL
same,MIC,Brucella melitensis,0.125 µg/mL
same,MIC,Brucella melitensis; Brucella melitensis,0.25 µg/mL
same,MIC,Brucella suis,0.125 µg/mL
same,MIC,Brucella suis; Brucella suis,0.063 µg/mL
